One compound from patent publication US10607721B2, “High-throughput, multi-omics approach to determine and validate de novo global mechanisms of action for drugs and toxins” (Vanderbilt University, priority 2015, dated 2020) can be followed below.

Each structure is given as a SMILES string. A value given as a limit tells only on which side of the number the result lay.

What all share (format): cell-based, Human
For assay [1], the system named is A549 cells. As to the kind of experiment: Molecular screening assay (MALDI FTICR MS, molecular variance score). The protocol: After incubation for the respective times, wells were washed 3 times with PBS and stored at −80° C. The effect of different toxin dosage amounts and exposure times on the molecular content of a sample may be evaluated and reported directly for thousands of molecular species based upon the mass spectra that were collected for each of the samples. A comparison of the mass-to-charge (m/z) peak content between spectra from dosed cells and a reference spectrum from a non-dosed control sample delivers a mass spectrometric assessment of toxicity-induced molecular variation. However, seeking a data-driven global comparison instead of focusing on specific molecular species of interest makes the assessment of molecular change between the different experimental conditions very complex and high-dimensional. To determine which dosage amount induces the greatest molecular change, the inventors developed a quick and broad assessment of toxicity-induced molecular variance summarizing the entire recorded mass range. […]
Within each time point (represented by a 24-well plate), seven different dosage conditions were measured: six different toxin dosages and one reference condition (e.g., untreated). Per dosage condition there were nine distinct replicate measurements made: each dosage condition was represented by three replicate wells, from which three technical replicate spectra were measured per well. […]

Assay [2] deals with A549 cells. The assay is described as follows: Apoptosis assay (ApoONE, caspase 3/7 activation). The settings on record: 50 μM cisplatin. The protocol: Cell viability and apoptosis were assessed by CellTiter Glo (Promega) and ApoONE (Promega) kits, respectively. Molecular changes were screened using a MALDI-FTICR MS platform.
Human lung carcinoma A549 cells were obtained from ATCC (Manassas, Va.) and cultured in Dulbecco's Modified Eagle's Medium (DMEM, Gibco) with 10% v/v heat-inactivated fetal bovine serum (Atlanta Biologicals) and 1% v/v penicillin/streptomycin (P/S) (Gibco) at 37° C. with 5% CO2 atmosphere. Stable isotope labeling by amino acids in cell culture (SILAC) media were prepared using SILAC DMEM (Thermo Scientific) containing 10% v/v dialyzed heat-inactivated FBS (Fisher), 1% v/v P/S, proline (250 mg/L) (Thermo Scientific), and appropriate light and heavy labeled arginine (84 mg/L), lysine (146 mg/L). […]
At each time point, cell viability and apoptosis were assessed by CellTiter-Glo (Promega) and ApoONE (Promega) kits, respectively. Plates were incubated at 37° C. in a plate reader (BioTek) with data 174 acquisition every 10 min by luminescence (1 s read time, 200 gain) and fluorescence (485 nm excitation, 528 nm emission). […] Cell viability was also assessed using the LIVE/DEAD Viability/Cytotoxicity Kit for mammalian cells (ThermoFisher). […]

Assay [3] concerns A549 cells. As to the kind of experiment: Multi-omics analysis (transcriptome, proteome, phosphoproteome, metabolome). The protocol:
Samples were analyzed for transcriptome changes by RNA sequencing at the Genomics Services Lab, HudsonAlpha, for proteome changes by label free, SILAC, and phospho-enriched SILAC LC-MS/MS, and metabolome changes by UPLC-IM-MS and data-independent acquisition (MSE) using both hydrophilic-interaction liquid chromatography and reverse phase liquid chromatography.
For proteomic and metabolomic label-free analyses, five sterile indium tin oxide (ITO)-coated glass slides (Delta Technologies) were placed in a tissue culture flask with removable lid (TPP). […] For proteomic analyses, slides were removed and washed 3 times with PBS, placed on dry ice, flash-frozen in liquid nitrogen, and stored at −80° C. prior to lysis. For metabolomics analysis, slides were washed in 50 mM ammonium formate.
For SILAC experiments, A549 cells were cultured in SILAC media for two weeks to ensure isotopic amino acid incorporation (verified by proteomic analysis). […] Following treatment cells were washed 3 times with 4° C. PBS. For phospho-SILAC, cells were washed with 4° C. PBS containing 1 mM sodium orthovanadate.
RNA was isolated using the RNeasy Mini Kit (Qiagen). For each time point, untreated and cisplatin-treated samples were isolated in triplicate and analyzed by the Genomics Services Lab at HudsonAlpha. RNAseq was performed using poly(A) selection on an Illumina HiSeq v4 sequencing platform. Reads were paired-end with a read length of 50 bp and 50 million reads per sample.
Cells were scraped from slides and lysed in 300 μL of 50 mM Tris pH 8, 150 mM NaCl, 1% Nonidet 40, 1 mM EDTA with added HALT Protease Inhibitor Cocktail (Thermo Scientific), centrifuged, and assayed for protein concentration (BCA Protein Assay, Thermo Scientific Pierce) using a SpectraMax M2e Microplate Reader with SoftMax Pro software version 5 (Molecular Devices). Aliquots of 100 μg of protein were acetone precipitated in six times the volume for 2 h at −80° C. Precipitates were washed three times with cold acetone and reconstituted in 10 μL of neat trifluoroethanol (TFE) and 10 μL of 100 mM Tris (pH 8.0). Samples were reduced with 1 μL of 0.5 M Tris(2-carboxyethyl)phosphine hydrochloride (TCEP) for 30 minutes at room temperature and alkylated with 2 μL of 0.5 M IAA for 30 minutes at room temperature in the dark. Samples were diluted with 100 mM Tris (pH 8.0) to obtain a final solution containing 10% TFE. The samples were digested with 2 μg of trypsin (a ratio of 50:1 protein 273 to enzyme) overnight at 37° C. A solution of 60% formic acid (FA) was added to the samples until they reached pH 3. Aliquots of 5 μg of digested sample were desalted using C18 spin tips (Protea) according to the supplied protocol and dried samples were reconstituted in 15 μL of 0.1% FA. Five replicates of cisplatin treated and control (untreated) cells were prepared in parallel.
Samples were analyzed on a Thermo Scientific Orbitrap Fusion Tribrid mass spectrometer in line with a Thermo Scientific Easy-nLC 1000 UHPLC system. Samples, 2 μL, were injected via the autosampler and loaded onto a Thermo Scientific Acclaim PepMap 100 C18 UHPLC column (75 μm×250 mm, 2 μm particle size, 100 Å pore size), with 0.1% FA in water (mobile phase A). Peptides were separated over a 140 minute two-step gradient with initial conditions set to 100% mobile phase A for 5 minutes before ramping to 20% mobile phase B, 0.1% FA in ACN, over 100 minutes and then 32% mobile phase B over 20 minutes. The remainder of the gradient was spent washing at 95% mobile phase B and returning to initial conditions. Eluted peptides were ionized via positive mode nanoelectrospray ionization (nESI) using a Nanospray Flex ion source (Thermo Fisher Scientific). The mass spectrometer was operated using a 3 second top speed data-dependent acquisition mode. Fourier transform mas spectra (FTMS) were collected using 120,000 resolving power, an automated gain control (AGC) target of 200,000, and a maximum injection time of 50 ms. […]

[4] abbreviates: 50 μM cisplatin for 1, 6, 24 and 48 h.

On to `N.N.[Cl][Pt][Cl]` [cisplatin], for which, in the assay on A549 cells [1] (50 μM), the “earliest time at which cisplatin-induced toxicity is measurable” value was at most 1 h. Besides, the “optimal dose (maximum response in physiological and molecular screen, cell viability >50%)” value in the assay with A549 cells [1] (exposure 1 and 6 h molecular screen, 24 h caspase assay) is 50 μM. Besides, in the assay on A549 cells [2], the “caspase activation over time” value is on record as “ceased after 48 h” and the “time of maximal caspase activation” value was 24 h. Further, the “BAD phosphorylation (pSer75 at 48 h; pSer118 at 24 h and 48 h)” value with A549 cells [3] (50 μM cisplatin) is on record as “increased”. Moreover, in the assay with A549 cells [3] (setting [4]), the “share of unique detected species significantly changed” value amounted to 24% and the “unique species significantly changed” value is given as 13,483. Also, the “phosphorylated ERK1 and/or ERK2 (pThr202/pTyr204; pThr185/pTyr187)” value in the assay on A549 cells [3] (50 μM cisplatin, 1, 6, 24, 48 h) is “increased at each time point”. Also, the ATP1A1 peptides result in the assay on A549 cells [3] (50 μM cisplatin, 6 and 24 h) is on record as “decreased significantly”. Further, the “CUL4B C-terminal peptide” value in the assay with A549 cells [3] (50 μM cisplatin, 1 h) is reported as “increased”. Besides, the Ncx1 transcript result in the assay with A549 cells [3] (50 μM cisplatin, 6 h) is on record as “significant decrease”. In the assay on A549 cells [3] (50 μM cisplatin, 24 h), the BAK1 result was “increased”, the CASP9 transcript entry was “downregulation” and the “phosphorylated mTOR at pS1166” value is on record as “increased”. Also, the HUWE1 abundance result in the assay with A549 cells [3] (50 μM cisplatin, 48 h) is “decreased”. In addition, in the assay with A549 cells [3] (50 μM cisplatin, beginning at 24 h), the “p53 pSer392” value was “increased significantly”. In the assay with A549 cells [3] (50 μM cisplatin, starting at 6 h), the “p53 pSer313, pSer314 and/or pSer315” value is given as “increased significantly”. Further, the “estrogen species (E1, E2)” value in the assay on A549 cells [3] (50 μM cisplatin, E1 up at 1 h, E1 and E2 up at 6 h, decreased by 24 h) was “transiently increased”. Besides, the “BAX, CYCS, APAF1 and CASP3 transcripts” value in the assay with A549 cells [3] (50 μM cisplatin, no proteomic abundance changes) is on record as “transcriptional upregulation”.
